Assay: Human HepG2 cell viability assay in 384 well format
Assay type: toxicity, cell-based
Parameters: dose 125 nL, time 70.5 hour; cytotoxicity at 70.5 h: concentration not given beside the values
Conditions: HepG2 cells, read-out: Inhibition

SMILES	cytotoxicity at 70.5 h [%]
Cc1cnn(CC(C)NCc2ccc(OCc3cscn3)cc2)c1 (centres undefined)	-6.24
Cc1cccc(S(=O)(=O)N2Cc3nccn3CC(CN(C)C)C2)c1 (centres undefined)	-8.23
Cc1ncsc1CN(C)C(=O)CC1CCOc2ccccc21 (centres undefined)	22.4
Cc1cc(C)n(CCCNC(=O)C(C)NC(=O)CC2CCCCC2)n1 (centres undefined)	-5.96
Cc1ncsc1CN1CCOC(C)(C(=O)N(C)C)C1 (centres undefined)	20
O=C(CCNCc1cccc2c1OCCCO2)NC1CCCC1	6.45
CC(=O)N1N=C(c2ccncc2)OC1C(=O)N(C)CCc1ccccc1 (centres undefined)	4.98
Cc1ncoc1C(=O)N1CCOC(CCCC(C)C)C1 (centres undefined)	-8.44
Cn1cc(CN2CC[C@@H]3[C@@H](CCC(=O)N3CC3CCNCC3)C2)cn1	1.94
CCO[C@@H]1CN(Cc2scnc2C)[C@@H]2CCCO[C@@H]21	-10.5
O=C(c1ccc(N2CCCC2)nc1)N1CCCC(n2cncn2)C1 (centres undefined)	-9
Cc1cc(N2CCCC(N(C)C)C2)n2nc(C)cc2n1 (centres undefined)	-17
CCCC(C)(C)NC(=O)CCN1CCOC1=O	0.72
COc1cccc(C(C)N2CCN(S(C)(=O)=O)CC2)c1 (centres undefined)	28.7
COc1ccc(S(=O)(=O)NC(=O)COC2CCCCC2)cc1	-7.04
O=S(=O)(C1CC1)N1Cc2nccn2CC(Cn2cncn2)C1 (centres undefined)	-4.4
c1ccc(C2CCCCN2Cc2nc(-c3cnccn3)no2)nc1 (centres undefined)	-1.69
Cc1ccsc1CN(c1nc(CCN)nc2ccccc12)C1CC1	10.4
O=C1[C@H]2CN(C3CCOCC3)C[C@H]2CN1Cc1cccnc1	3.06
Fc1ccc2[nH]c(C3CCCN3CCc3ccccn3)nc2c1 (centres undefined)	-8.26
O=C(c1ccccc1)N1Cc2nccn2CC(Cn2ncccc2=O)C1 (centres undefined)	-6.78
N#Cc1ccc(C(=O)N2CCn3cc(CN4CCCCC4)nc3C2)cc1	-11.7
COc1ccc(CN(Cc2cncn2C)CC2CCCO2)cc1OC (centres undefined)	-10.3

SMILES	cytotoxicity at 70.5 h [%]
COC[C@]12COC[C@H]1CN(C(=O)C1CCSCC1)C2	-6.73
CC(NC(=O)CN1CCCC1=O)c1ccc(Cl)s1 (centres undefined)	-9.58
C[C@@H](O)CNC(=O)CCc1nc2cccnc2[nH]1	-23.4
CNc1nc(CNC(=O)Nc2cc(Cl)ccc2F)cs1	-2.3
Cc1cc(F)c2c(c1)CCCN2Cc1cc(=O)n(C)c(=O)n1C	-8.84
CC1(c2ccccc2)CCCN(Cc2cncn2C2CCCC2)C1 (centres undefined)	-13.6
Cc1nc(C2CCCN2C(=O)c2ccc(N(C)C)nn2)no1 (centres undefined)	25.8
CCc1nsc(N2CCCN(C(=O)c3ccc(OC)cc3)CC2)n1	-10.9
Cc1cnn(CC2CCCN2CC(=O)Nc2nncs2)c1 (centres undefined)	-5.64
O=C(NCCc1nnc2n1CCCCC2)N1CCC2(CCOC2)C1 (centres undefined)	-5.08
CCc1nnc2n1CCN(C(=O)CN(C)Cc1ccccc1)C2	-4.4
Cn1cnn(Cc2ccccc2F)c1=O	2.33
CNc1ncc(C(=O)N2CCOC(C(=O)Nc3ccccc3)C2)cn1 (centres undefined)	-2.73
CC(C)(C)c1ccc(=O)n(CN2CCCC(C(F)(F)F)C2)n1 (centres undefined)	-7.29
NC(=O)[C@H]1CCCN1C(=O)c1csc(-c2ccc(C(F)(F)F)cc2)n1	-6.09
OCCCN1CCc2onc(C(c3ccccc3)c3ccccc3)c2C1	6.85
Cc1cc(-c2cnc(N3CCCCCC3)nc2-c2cccnc2C)on1	-12.8
CS(=O)(=O)c1ccc2c(c1)N(C(=O)Cc1ccc(F)cc1)CCC2	14.3
COCC(=O)N1C[C@H]2CNC[C@@]2(C(=O)NCc2cccc3[nH]ccc23)C1	-3.16
CCOCCn1nc(C)cc1C(=O)N1CCN(C(C)C)C(CC)C1 (centres undefined)	-8.86
O=C(CN1CCCC1=O)NCc1cccnc1Oc1ccc(F)c(F)c1	1.24
Cc1ccc(CN2CCc3[nH]nc(C(=O)N4CCN(C)CC4)c3C2)o1	23.5
COc1cc(C(=O)N2CCCC(CNS(C)(=O)=O)C2)cc(OC)c1C (centres undefined)	-13.5

SMILES	cytotoxicity at 70.5 h [%]
CCS(=O)(=O)N1CCC(c2nccn2Cc2ccncc2)CC1	-1.9
N#Cc1ccc(CCC(=O)N2CCCC(n3cncn3)C2)cc1 (centres undefined)	-8.59
CC(C)N1CCc2[nH]nc(C(=O)N3CCOCC3)c2C1	-12.9
CC(C)S(=O)(=O)NC(=O)CC(c1ccccc1)C(F)(F)F (centres undefined)	-9.01
Cc1cc(C(=O)N(C)Cc2cccs2)nc(N2CCOCC2)n1	-0.782
CS(=O)(=O)CCOc1nc(-c2ccccc2Cl)no1	-102
COc1cc(CNCC(O)c2ccccc2F)cc2c1OCO2 (centres undefined)	-14
CCn1cc(NC(=O)CCc2ccc3c(c2)OCCCO3)cn1	10.1
COc1cc(OC)cc(-c2cc(CN)nc3ccnn23)c1	-4.26
O=C(c1ccc2[nH]cnc2c1)N1CCC(Oc2cccnc2)CC1	-6.98
COc1cc(N2CCC3(CC2)CC(N2CCN(C)CC2)CO3)ncn1 (centres undefined)	-20.9
CN(C)[C@H]1CCCCN(Cc2cnc(NCc3ccccc3)nc2)C1	-1.39
O=C(NCCN1CCOCC1)c1ccn(-c2ccccc2F)n1	-2.56
CCOc1ccc(NC(=O)Cn2cc(I)cn2)cc1	-18.2
CN(CCn1nc2ccccn2c1=O)CC(=O)NC1CC1	-8.39
CC(O)CCN(C)C(=O)Nc1ccc(Br)cc1 (centres undefined)	26.9
Cc1nc(C)n(CC2CCCN(CCOc3ccccc3C#N)C2)n1 (centres undefined)	18.8
CN(C)c1ncc(-c2cccc(C(N)=O)c2)c(C2CNCCO2)n1 (centres undefined)	-1.28
COC(=O)N1CCCCC1C(=O)N(C)Cc1cc(-c2cccnc2)no1 (centres undefined)	-8.4
Cc1ccc(CNc2ccccc2SCCC(N)=O)s1	-99.2
O=C1NCCCCC1Sc1nnc(N2CCCC2)n1C1CC1 (centres undefined)	6.7
O=C(O)[C@]12CCCN(C3CCOC3)C[C@H]1CN(c1nncs1)C2 (some centres undefined)	-7.95
COCC(=O)N1CCc2c(CNS(C)(=O)=O)n[nH]c2C1	-5.36

SMILES	cytotoxicity at 70.5 h [%]
CC(C)C(=O)N1CCN(S(=O)(=O)C2CC2)CC2(CC(=O)N(C)C2)C1 (centres undefined)	-6.71
CC(NS(=O)(=O)N(C)C(C)C)C(=O)N(C)C (centres undefined)	-4.6
CC(C)OCCC1CCCCN1S(N)(=O)=O (centres undefined)	10.9
O=C(CSc1ccc2c(c1)OCCO2)NS(=O)(=O)c1ccccc1Br	-6.54
Cn1cc(CNC2CCc3ncnn3C2)c(-c2ccncc2)n1 (centres undefined)	-1.76
Cc1cc(C2CCCN(S(=O)(=O)c3cn(C)cn3)C2)ccn1 (centres undefined)	-5.97
COCC(=O)N1CCC2(CCC2NC(=O)c2ccn(C)c2)CC1 (centres undefined)	-9.35
COc1ccc2[nH]cc(C(=O)N3C[C@@H](O)[C@H](N4CCCC4)C3)c2c1	17.1
Cc1cccc(N2CCC(N3CCCC4(CN(C)C(=O)O4)C3)CC2)c1C (centres undefined)	-9.98
Cc1cc(C(=O)Nc2ccc(OC3CCOCC3)c(C)c2)[nH]n1	-17.3
C[C@@H]1CN(Cc2nc(Cc3ccccc3F)no2)C[C@H](C)O1	32.5
CC(C)(C)c1n[nH]cc1CNCC1CCN(CC(F)(F)F)C1 (centres undefined)	-6.93
O=c1ccc2c(n1CC1CC1)CCC(NCc1cccs1)C2 (centres undefined)	-10.4
CCc1sc(C(=O)Nc2cnn(CC(N)=O)c2)cc1C	14.8
CC/N=c1\nc(NCC)nc2n1C(O)(Nc1cccc(C)c1C)CS2 (centres undefined)	-6.29
NC(=O)c1cnn2c1NCC(CNCCc1ccco1)C2 (centres undefined)	-1.07
O=C(c1ccc(Br)o1)N1CCN(Cc2ccc(F)cc2)CC1	7.95
CC(C)c1nc(-c2cc(C(=O)N3CCN(C)CC3)c3ccccn23)cs1	9.79
CN(C(=O)Cn1nc(-c2ccc(Cl)cc2)ccc1=O)C1CCS(=O)(=O)C1 (centres undefined)	-21.1
Cc1nn(C)cc1S(=O)(=O)N[C@@H]1CCC[C@@H](n2ccnc2)[C@@H]1O	-6.03
COc1ccc(-c2nnc([C@H]3CCN(C4CCC4)C3)o2)cc1	-0.264
CC(C)n1cc(C(=O)NCCc2cn3ccsc3n2)cn1	13.8
CNc1cncc(C2CCCN2c2cc(C)ncn2)n1 (centres undefined)	17.1

SMILES	cytotoxicity at 70.5 h [%]
Cc1nc(C2CCCN(C(=O)c3ccc(Cn4cccn4)o3)C2)no1 (centres undefined)	-12.8
CC(C)(C)CNS(=O)(=O)C1CS(=O)(=O)c2ccccc21 (centres undefined)	16.6
COc1ccc(N2CCN(C(=O)[C@@H]3C[C@@H](O)CN3)CC2(C)C)cc1	6.62
Cn1ccnc1COc1ccc(CSc2nnnn2C2CC2)cc1	6.53
c1ccc(-c2nc(CN3CCOC(Cn4cccn4)C3)co2)cc1 (centres undefined)	4.42
O=C(c1ccc(-n2ccnc2)cc1)N1CCN(c2cnccn2)CC1	2.67
O=C(CCCn1ccnc1)NC1CCCN(c2ccccc2Cl)C1 (centres undefined)	-18
Cc1cc(CN2CCCC(NS(C)(=O)=O)C2)ccc1-n1cncn1 (centres undefined)	11.7
CC(=O)N1CCN(CCNS(=O)(=O)c2cc(F)cc(F)c2)CC1	-0.303
CC(C)n1nc(CN2CCOCC2)c2c1CN(Cc1ccsc1)C2	-4.8
O=S(=O)(NC1CCCOC1)c1ccc(C(F)(F)F)nc1 (centres undefined)	-1.78
O=C(Cc1cccnc1)N1CCC(c2nnc(-c3ccccn3)o2)CC1	25.5
Cc1cccc(OCCC(=O)N2CCN(CC(=O)NC3CC3)CC2)c1C	-11.9
CNC(=O)CCN1CCN(C(C)c2ccc(Cl)cc2)CC1 (centres undefined)	-6.21
CCOCC1CN(Cc2ccoc2)Cc2ncn(CC3CC3)c21 (centres undefined)	5.39
CN(C)c1ccc(C(=O)Nc2ccn(Cc3ccccn3)n2)cn1	14.6
CC(=O)N(Cc1noc(C)n1)C1CCN(Cc2ccccn2)C1 (centres undefined)	-8.37
CCCN1CC(NC(=O)Nc2nc(C)n(C(C)C)n2)CC1=O (centres undefined)	-3.82
CCn1cc(N2Cc3nc(N4CCOCC4)ncc3C2=O)cn1	2.67
O=C(NC1COC2(CCN(Cc3cccs3)CC2)C1)c1ccccn1 (centres undefined)	-2.35
Cc1ccc(CN2CCn3c(C(=O)N(C)C)cnc3C2)s1	-20.4
O=C(C1CCCN(Cc2cccc(F)c2)C1)N1CCc2sccc2C1 (centres undefined)	0.518
